Experimental findings from ChEMBL document CHEMBL1201862, “PubChem BioAssay data set” (2004) are described below.

Among the test systems are UACC-62; COLO 205; NCI/ADR-RES; HL-60; OVCAR-5; RPMI-8226; KM12; MDA-MB-231; SK-MEL-28; MDA-MB-435; EKVX; LOX IMVI; U-251; Hs-578T; A498; NCI-H23; MOLT-4; HCC 2998; Malme-3M.
Common to all, as to test: NCI-60 cell line screen, 48 h

Molecules are shown by their SMILES.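 Assay format: 96-well plates, 48-hour exposure. GI50 is the concentration that inhibits growth by half.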 Activity calls are given as the source filed them. No stated cut-off is given here; in the data, active = GI50 up to about 1.1 µM and inactive = higher. Where only a bound is given, the exact number is not on record here.

`COc1ccc(C(OCC2OC(n3ccc(Oc4c(F)c(F)c(F)c(F)c4F)nc3=O)CC2OP(OCCC#N)N(C(C)C)C(C)C)(c2ccccc2)c2ccc(OC)cc2)cc1` (stereo not given): the GI50 in the assay on UACC-62, in the assay on COLO 205, with NCI/ADR-RES, in the assay with HL-60, in the assay on OVCAR-5 and in the assay with RPMI-8226 was > 100 µM (inactive) each time. The GI50 was > 100 µM (inactive) in the assay on KM12; > 100 µM (inactive) in the assay on MDA-MB-231; > 100 µM (inactive) with SK-MEL-28; > 100 µM (inactive) in the assay on MDA-MB-435; > 10 µM (inactive) in the assay with EKVX; > 100 µM (inactive) in the assay with LOX IMVI. The GI50 was > 100 µM (inactive) with U-251; > 100 µM (inactive) in the assay with Hs-578T; > 100 µM (inactive) in the assay with A498; 42.8 µM (inactive) in the assay on NCI-H23; > 100 µM (inactive) in the assay on MOLT-4; > 100 µM (inactive) with HCC 2998.
With `N#Cc1c(/C=C/c2ccccc2)c2c([nH]c1=S)CCCCC2`, the GI50 with COLO 205 is > 100 µM (inactive); with NCI/ADR-RES, > 100 µM (inactive); in the assay with HL-60 it was > 100 µM (inactive); in the assay with OVCAR-5, > 100 µM (inactive); with RPMI-8226, > 100 µM (inactive); with KM12 it was 75.5 µM (inactive). The GI50 with MDA-MB-231, in the assay on SK-MEL-28, in the assay on Malme-3M, in the assay on MDA-MB-435, with EKVX and in the assay on LOX IMVI was > 100 µM (inactive) in each case. In addition, the GI50 in the assay on U-251 was 82.2 µM (inactive); in the assay on Hs-578T it was > 100 µM (inactive); with A498, > 100 µM (inactive); in the assay with NCI-H23, > 100 µM (inactive); in the assay with MOLT-4 it was > 100 µM (inactive); in the assay on HCC 2998 it was > 100 µM (inactive).
Take `CC(C)OC(=O)c1ccc(NCC2=CC(=O)C=CC2=O)cc1Cl`: the GI50 in the assay with UACC-62 is 13.2 µM (inactive); in the assay with COLO 205 it was 4.07 µM (inactive); in the assay with NCI/ADR-RES it was 7.93 µM (inactive); in the assay on HL-60 it was 0.904 µM (active); in the assay on OVCAR-5 it was 22.2 µM (inactive); in the assay with KM12, 13.5 µM (inactive). The GI50 in the assay with MDA-MB-231 is 16.4 µM (inactive); in the assay on SK-MEL-28, 17.2 µM (inactive); in the assay with MDA-MB-435, 9.44 µM (inactive); in the assay on EKVX, 15.4 µM (inactive); in the assay with LOX IMVI it was 10.5 µM (inactive); with U-251, 16.9 µM (inactive). The GI50 in the assay on Hs-578T is 23.3 µM (inactive); in the assay with A498 it was 16.3 µM (inactive); in the assay with NCI-H23, 13.2 µM (inactive); with MOLT-4, 3.72 µM (inactive); in the assay on HCC 2998, 15.2 µM (inactive).
On to `O=C(O)COc1c(Cl)cc(Cl)c(C(c2c(Cl)cc(Cl)c(OCC(=O)O)c2Cl)C(Cl)(Cl)Cl)c1Cl`, for which the GI50 in the assay on UACC-62 was 18.9 µM (inactive); with COLO 205 it was 40 µM (inactive); in the assay with NCI/ADR-RES it was 34 µM (inactive); in the assay on HL-60, 21.7 µM (inactive); in the assay on OVCAR-5, 29.3 µM (inactive); with RPMI-8226, 28.3 µM (inactive). In addition, the GI50 was 40.1 µM (inactive) with KM12; 24.9 µM (inactive) with MDA-MB-231; 40.2 µM (inactive) with SK-MEL-28; 28.7 µM (inactive) with Malme-3M; 23 µM (inactive) in the assay with MDA-MB-435; 33.7 µM (inactive) in the assay with LOX IMVI. Besides, the GI50 with U-251 was 26.7 µM (inactive); in the assay on Hs-578T it was 38 µM (inactive); in the assay with A498 it was 35.7 µM (inactive); in the assay with NCI-H23 it was 25.9 µM (inactive); in the assay with MOLT-4, 35.3 µM (inactive); in the assay with HCC 2998 it was 12.1 µM (inactive).
For `O=C1NN(Cc2ccccc2)C(=O)N2CCC[C@@H]12`, the GI50 in the assay with UACC-62, in the assay on COLO 205, with NCI/ADR-RES, with HL-60, in the assay on OVCAR-5 and in the assay with KM12 was > 100 µM (inactive) each time. The GI50 in the assay on MDA-MB-231, in the assay on SK-MEL-28, in the assay with Malme-3M, with MDA-MB-435, in the assay on EKVX and with LOX IMVI was > 100 µM (inactive) throughout. In addition, the GI50 in the assay on Hs-578T, with A498, with NCI-H23, with MOLT-4 and in the assay with HCC 2998 was > 100 µM (inactive) in each case.
Consider `CC1=Cc2ccc(C)cc2C(=O)C1=O`, for which the GI50 is 20.2 µM (inactive) in the assay on UACC-62; 6.07 µM (inactive) in the assay on COLO 205; 18.8 µM (inactive) with NCI/ADR-RES; 1 µM (active) with HL-60; 18.3 µM (inactive) in the assay with OVCAR-5; 2.16 µM (inactive) in the assay on RPMI-8226. Moreover, the GI50 in the assay on KM12 was 17.6 µM (inactive); with MDA-MB-231 it was 20.6 µM (inactive); in the assay with SK-MEL-28, 21.6 µM (inactive); with MDA-MB-435, 2.06 µM (inactive); in the assay with EKVX, 18.3 µM (inactive); in the assay on LOX IMVI, 4.66 µM (inactive). In addition, the GI50 in the assay with U-251 is 20.4 µM (inactive); with Hs-578T, 13.9 µM (inactive); in the assay with A498, 22.4 µM (inactive); in the assay with NCI-H23 it was 17.3 µM (inactive); in the assay on MOLT-4 it was 0.605 µM (active); in the assay with HCC 2998 it was 14.9 µM (inactive).
Turning to `NNC(=O)CSc1nc2ccccc2c(=O)n1N`, the GI50 in the assay with UACC-62 was 27.6 µM (inactive); with COLO 205 it was > 100 µM (inactive); with NCI/ADR-RES, > 100 µM (inactive); in the assay with OVCAR-5 it was > 100 µM (inactive); in the assay with RPMI-8226 it was > 100 µM (inactive); in the assay on KM12, > 100 µM (inactive). Further, the GI50 in the assay with MDA-MB-231 was 17.3 µM (inactive); in the assay on SK-MEL-28, > 100 µM (inactive); with Malme-3M it was 46.7 µM (inactive); in the assay on MDA-MB-435, > 100 µM (inactive); with EKVX, 53.8 µM (inactive); in the assay with LOX IMVI, 43.4 µM (inactive). For the same compound, the GI50 in the assay on U-251 was 19.1 µM (inactive); in the assay with Hs-578T, 29.7 µM (inactive); with A498 it was > 100 µM (inactive); in the assay on NCI-H23, 29.8 µM (inactive); with MOLT-4, > 100 µM (inactive); with HCC 2998 it was > 100 µM (inactive).
Turning to `CCn1c2ccccc2n2c(=O)c3c(c(C#N)c12)CCCC3`, the GI50 with UACC-62, in the assay on COLO 205, in the assay with NCI/ADR-RES, with HL-60, with OVCAR-5 and with KM12 was > 100 µM (inactive) in each case. Moreover, the GI50 in the assay on MDA-MB-231, in the assay with SK-MEL-28, with Malme-3M, in the assay on MDA-MB-435, in the assay with EKVX and in the assay with LOX IMVI was > 100 µM (inactive) throughout. Besides, the GI50 with U-251, with Hs-578T, in the assay on A498, with NCI-H23, in the assay with MOLT-4 and in the assay with HCC 2998 was > 100 µM (inactive) each time.
Consider `CC/C=C\C/C=C\C/C=C\CCCCCCCC(=O)OC(COC(=O)CCCCCCCCCCCCCCCCC)COC1OC(CO)C(O)C(O)C1O` (stereo not given), for which the GI50 is > 25 µM (inactive) with UACC-62; > 25 µM (inactive) in the assay with COLO 205; 23.6 µM (inactive) in the assay with NCI/ADR-RES; > 25 µM (inactive) in the assay with HL-60; > 25 µM (inactive) in the assay on OVCAR-5; 8.57 µM (inactive) in the assay with RPMI-8226. Moreover, the GI50 with KM12 was > 25 µM (inactive); with MDA-MB-231 it was > 25 µM (inactive); with SK-MEL-28, > 25 µM (inactive); with MDA-MB-435 it was > 25 µM (inactive); with EKVX, 4.7 µM (inactive); in the assay with LOX IMVI, > 25 µM (inactive). Besides, the GI50 in the assay with U-251 was > 25 µM (inactive); with Hs-578T it was 2.59 µM (inactive); in the assay on A498 it was > 25 µM (inactive); in the assay on NCI-H23, > 25 µM (inactive); in the assay with MOLT-4 it was > 25 µM (inactive); with HCC 2998 it was > 25 µM (inactive).
Turning to `COCN1C(=O)[C@@H]2CCCN2C(=O)c2ccc([N+](=O)[O-])cc21`, the GI50 in the assay with UACC-62 was > 100 µM (inactive); in the assay with COLO 205, > 100 µM (inactive); with NCI/ADR-RES, > 100 µM (inactive); in the assay with HL-60 it was 87.5 µM (inactive); in the assay with OVCAR-5, > 100 µM (inactive); in the assay on RPMI-8226, > 100 µM (inactive). Further, the GI50 in the assay with KM12, in the assay on MDA-MB-231, with SK-MEL-28, in the assay with MDA-MB-435, in the assay on EKVX and in the assay with LOX IMVI was > 100 µM (inactive) throughout. The GI50 in the assay on U-251, in the assay on Hs-578T, in the assay with A498, in the assay on NCI-H23, with MOLT-4 and in the assay on HCC 2998 was > 100 µM (inactive) throughout.
For `CC(C)(C)C1CCC2c3c([nH]c4ccccc34)C3C(=O)N(c4ccccc4Cl)C(=O)C3C2C1` (stereo not given), the GI50 with UACC-62 is 14 µM (inactive); with COLO 205, > 10 µM (inactive); with NCI/ADR-RES it was 15.3 µM (inactive); with HL-60 it was 12.6 µM (inactive); in the assay on OVCAR-5, > 10 µM (inactive); in the assay with RPMI-8226, 31.4 µM (inactive). Moreover, the GI50 in the assay with MDA-MB-231 is 10.3 µM (inactive); in the assay on Malme-3M, 17.3 µM (inactive); with MDA-MB-435, 30.7 µM (inactive); in the assay on EKVX, 6.65 µM (inactive); with LOX IMVI, 10.6 µM (inactive); in the assay on U-251, 15.6 µM (inactive). For the same compound, the GI50 in the assay on Hs-578T was 10.4 µM (inactive); in the assay with A498, 17.9 µM (inactive); in the assay with NCI-H23, 14.4 µM (inactive); with MOLT-4, 17.9 µM (inactive); in the assay on HCC 2998 it was 3.41 µM (inactive).
